Laboratory results as given in the supplement of paper PMC10307832.

Legend:
Assay in all cases: relative viability (nuclei count vs DMSO), 5 days (fraction); higher = more cells survive
[1] = test system: NCI-H1793
Outline: (§1)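 Lung cancer cell lines were seeded in 1536-well plates and dosed by pin tool the next day, with either a single drug or a fixed anchor-drug dose combined with five library-drug doses (not always all listed) spaced in √10 steps. Five days later, one step fixed the cells and stained their nuclei (final 0.05% Triton X-100, 1% formaldehyde, 1 ug/ml Hoechst), and nuclei were counted on 4× images. Relative viability is the nuclei count in treated wells divided by the count in vehicle wells, and each value is the median of duplicate plates.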

[2] = test system: LK-2
Outline: as §1

[3] = test system: NCI-H650
Outline: as §1

[4] = test system: NCI-H2347
Outline: as §1

[5] = test system: NCI-H1944
Outline: as §1

[6] = test system: COR-L23
Outline: as §1

[7] = test system: NCI-H1650
Outline: as §1

[8] = test system: NCI-H727
Outline: as §1

[9] = test system: 201T
Outline: as §1

[10] = test system: PC-14
Outline: as §1

[11] = test system: NCI-H460
Outline: as §1

[12] = test system: NCI-H838
Outline: as §1

[13] = test system: SW 1573
Outline: as §1

[14] = test system: A-427
Outline: as §1

[15] = test system: NCI-H23
Outline: as §1

[16] = test system: H3255
Outline: as §1

[17] = test system: SW 900
Outline: as §1

[18] = test system: LCLC-103H
Outline: as §1

[19] = test system: LU99A
Outline: as §1

[20] = test system: PC-3 [JPC-3]
Outline: as §1

[21] = test system: HCC-44
Outline: as §1

[22] = test system: LCLC-97TM1
Outline: as §1

For `O=C(O)c1ccc(-c2c[nH]c3ncc(-c4ccccc4)cc23)cc1C1CCCC1` + Cc1cc(Nc2cc(N3CCN(C)CC3)nc(Sc3ccc(NC(=O)C4CC4)cc3)n2)n[nH]1 [Tozasertib] (partner 0.1 µM), the relative viability ([1]; first compound 0.04 µM) was 0.345, the relative viability ([1]; first compound 0.1265 µM) was 0.323 and the relative viability ([1]; first compound 0.4 µM) was 0.513. It also gave a relative viability ([1]; first compound 1.265 µM) of 0.266, a relative viability ([2]; first compound 0.04 µM) of 0.186 and a relative viability ([2]; first compound 0.1265 µM) of 0.161. It also gave a relative viability ([2]; first compound 0.4 µM) of 0.181, a relative viability ([2]; first compound 1.265 µM) of 0.184 and a relative viability ([3]; first compound 0.04 µM) of 0.706. The relative viability ([3]; first compound 0.1265 µM) was 0.691, the relative viability ([3]; first compound 0.4 µM) was 0.641 and the relative viability ([3]; first compound 1.265 µM) was 0.351. For the same compound, the relative viability ([4]; first compound 0.04 µM) was 0.606, the relative viability ([4]; first compound 0.1265 µM) was 0.643 and the relative viability ([4]; first compound 0.4 µM) was 0.522. It also gave a relative viability ([4]; first compound 1.265 µM) of 0.5, a relative viability ([5]; first compound 0.04 µM) of 0.231 and a relative viability ([5]; first compound 0.1265 µM) of 0.259. It also gave a relative viability ([5]; first compound 0.4 µM) of 0.233, a relative viability ([5]; first compound 1.265 µM) of 0.249 and a relative viability ([6]; first compound 0.04 µM) of 0.208. It also gave a relative viability ([6]; first compound 0.1265 µM) of 0.177, a relative viability ([6]; first compound 0.4 µM) of 0.166 and a relative viability ([6]; first compound 1.265 µM) of 0.119. For the same compound, the relative viability ([7]; first compound 0.04 µM) was 0.458, the relative viability ([7]; first compound 0.1265 µM) was 0.388 and the relative viability ([7]; first compound 0.4 µM) was 0.372. For the same compound, the relative viability ([7]; first compound 1.265 µM) was 0.295, the relative viability ([8]; first compound 0.04 µM) was 0.67 and the relative viability ([8]; first compound 0.1265 µM) was 0.533. The relative viability ([8]; first compound 0.4 µM) was 0.407, the relative viability ([8]; first compound 1.265 µM) was 0.578 and the relative viability ([9]; first compound 0.04 µM) was 0.943. The relative viability ([9]; first compound 0.1265 µM) was 0.973, the relative viability ([9]; first compound 0.4 µM) was 0.893 and the relative viability ([9]; first compound 1.265 µM) was 0.771. The relative viability ([10]; first compound 0.04 µM) was 0.599, the relative viability ([10]; first compound 0.1265 µM) was 0.638 and the relative viability ([10]; first compound 0.4 µM) was 0.484. It also gave a relative viability ([10]; first compound 1.265 µM) of 0.508, a relative viability ([11]; first compound 0.04 µM) of 0.413 and a relative viability ([11]; first compound 0.1265 µM) of 0.384. The relative viability ([11]; first compound 0.4 µM) was 0.491, the relative viability ([11]; first compound 1.265 µM) was 0.306 and the relative viability ([12]; first compound 0.04 µM) was 0.291. The relative viability ([12]; first compound 0.1265 µM) was 0.274, the relative viability ([12]; first compound 0.4 µM) was 0.232 and the relative viability ([12]; first compound 1.265 µM) was 0.229. The relative viability ([13]; first compound 0.04 µM) was 0.183, the relative viability ([13]; first compound 0.1265 µM) was 0.194 and the relative viability ([13]; first compound 0.4 µM) was 0.211. For the same compound, the relative viability ([13]; first compound 1.265 µM) was 0.148, the relative viability ([14]; first compound 0.04 µM) was 0.23 and the relative viability ([14]; first compound 0.1265 µM) was 0.255. The relative viability ([14]; first compound 0.4 µM) was 0.182, the relative viability ([14]; first compound 1.265 µM) was 0.182 and the relative viability ([15]; first compound 0.04 µM) was 0.355. For the same compound, the relative viability ([15]; first compound 0.1265 µM) was 0.369, the relative viability ([15]; first compound 0.4 µM) was 0.364 and the relative viability ([15]; first compound 1.265 µM) was 0.353. For the same compound, the relative viability ([16]; first compound 0.04 µM) was 0.524, the relative viability ([16]; first compound 0.1265 µM) was 0.693 and the relative viability ([16]; first compound 0.4 µM) was 0.618. It also gave a relative viability ([16]; first compound 1.265 µM) of 0.604, a relative viability ([17]; first compound 0.04 µM) of 0.638 and a relative viability ([17]; first compound 0.1265 µM) of 0.585. It also gave a relative viability ([17]; first compound 0.4 µM) of 0.526, a relative viability ([17]; first compound 1.265 µM) of 0.311 and a relative viability ([18]; first compound 0.04 µM) of 0.538. For the same compound, the relative viability ([18]; first compound 0.1265 µM) was 0.552, the relative viability ([18]; first compound 0.4 µM) was 0.4 and the relative viability ([18]; first compound 1.265 µM) was 0.392. The relative viability ([19]; first compound 0.04 µM) was 0.268, the relative viability ([19]; first compound 0.1265 µM) was 0.253 and the relative viability ([19]; first compound 0.4 µM) was 0.281. For the same compound, the relative viability ([19]; first compound 1.265 µM) was 0.257, the relative viability ([20]; first compound 0.04 µM) was 0.926 and the relative viability ([20]; first compound 0.1265 µM) was 0.881. It also gave a relative viability ([20]; first compound 0.4 µM) of 0.766, a relative viability ([20]; first compound 1.265 µM) of 0.65 and a relative viability ([21]; first compound 0.04 µM) of 1.16. For the same compound, the relative viability ([21]; first compound 0.1265 µM) was 1.15, the relative viability ([21]; first compound 0.4 µM) was 0.853 and the relative viability ([21]; first compound 1.265 µM) was 0.616. The relative viability ([22]; first compound 0.04 µM) was 0.338, the relative viability ([22]; first compound 0.1265 µM) was 0.315 and the relative viability ([22]; first compound 0.4 µM) was 0.243. It also gave a relative viability ([22]; first compound 1.265 µM) of 0.188.
